One experiment has as its system OVCAR3 cells. In words: Tumor sphere formation, XAV939, SPC25-overexpressing OVCAR3. The experiment is classed as cell-based, human. As to conditions: for negative ratio / number of negative wells: XAV939 100uM, 24 wells.
In a further experiment the test system is COV644 cells. In words: Tumor sphere formation, XAV939, SPC25-overexpressing COV644. Format: cell-based, human. As to conditions: for Log(negative ratio, 2) / negative ratio / number of negative wells: XAV939 100uM, 24 wells.
Another experiment relates to patients with EOC. The arrangement: method as in 2 sources, ref 59 = [59]; PMID 22204724; doi:10.1056/NEJMoa1104390; 59 R. A. Burger , M. F. Brady , M. A. Bookman , G. F. Fleming , B. J. Monk , H. Huang , R. S. Mannel , H. D. Homesley , J. Fowler , B. E. Greer , M. Boente , M. J. Birrer , S. X. Liang , G. G. Oncolog ||| ref 61, 62, 63 = [61]; PMID 25481791; doi:10.1016/S1470-2045(14)71135-0; 61 A. M. Oza , D. Cibula , A. O. Benzaquen , C. Poole , R. H. Mathijssen , G. S. Sonke , N. Colombo , J. Spacek , P. Vuylsteke , H. Hirte , S. Mahner , M. Plante , B. Schmalfeldt , H. Mackay , J. Rowb || [62]; PMID 34485111; doi:10.3389/fonc.2021.638295; 62 N. Ren , L. Zhang , J. Yu , S. Guan , X. Dai , L. Sun , M. Ying , Front. Oncol. 2021 , 11 , 638295 . 34485111 10.3389/fonc.2021.638295 PMC8414886 || [63]; PMID 27663600; doi:10.1158/1078-0432.CCR-16-1546; 63 J. M. Lee , C. J. Peer , M. Yu , L. Amable , N. Gordon , C. M. Annunziata , N. Houston , A. K. Goey , T. M. Sissung , B. Parker , L. Minasian , V. L. Chiou , R. F. Murphy , B. C. Widemann , W. D. F. As to conditions: cited from earlier work; for PFS or OS during chemotherapy: PARP inhibitors during chemotherapy; for maintenance treatment benefit for patient survival: PARP inhibitors, maintenance treatment of EOC.

The next experiment deals with casein kinase II (CKII). In words: Inhibition of endogenous CKII kinase activity. Format: cell-based, human. As to conditions: OVCAR3 and OVCAR8 cells. As to the method: (§1) Western Blotting: Western blotting was performed using primary antibodies detailed in Table S5 (Supporting Information). Western blotting grayscale analyses were performed using ImageJ (version 2.0.0; NIH, Bethesda, MD, USA). β-Catenin expression was quantified by determining the gray level of each band using Image J and normalized using α-tubulin.

The test system of experiment [1] is MYH9 phosphorylation at Ser1943. In words: Western blotting, phosphorylation of MYH9 at Ser1943 under CX-4945, OVCAR3 and OVCAR8. The experiment is classed as cell-based, human. As to conditions: CX-4945 6 μM, OVCAR3 and OVCAR8 cells with SPC25 overexpression or silencing. As to the method:
as §1
Figure S6. A) Exogenous IP assays performed to assess Ser/Thr phosphorylation status of MYH9-Myc in HEK293FT cells with or without SPC25-Flag expression. B) Quantification of nuclear or cellular fluorescence of reexpressed GFP-MYH9-WT with NLS2-2A and NLS2-3A mutants in MYH9-silenced OVCAR3 cells with or without SPC25 overexpression. C) qRT-PCR of MYH9 in OVCAR8 and SKOV3 cells with exogenous expression of MYH9 mutant variants. D) qRT-PCR of MYH9 in MYH9-silenced OVCAR3 and OVCAR8 cells with reexpression of MYH9-WT or MYH9-S1943A. E) qRT-PCR of CTNNB1 in MYH9-silenced OVCAR8 cells with reexpression of MYH9-WT or MYH9-S1943A under SPC25 silencing (left). TOP/FOP Flash analysis in MYH9-silenced OVCAR8 cells with reexpression of MYH9-WT or MYH9-S1943A under SPC25 silencing (right). F) Endogenous phosphorylation status of MYH9 at Ser1943 in OVCAR3 and OVCAR8 cells under escalating doses of CX-4945 examined through Western blotting. […]

In the case of `Oc1nc(-c2ccc(C(F)(F)F)cc2)nc2c1CSCC2` [XAV939], the “enhanced stemness attributable to SPC25 overexpression (tumor sphere formation)” value in the experiment with OVCAR3 cells (SPC25-overexpressing OVCAR3) and in the experiment on COV644 cells (SPC25-overexpressing COV644) was “effectively mitigated the enhanced stemness” in each case. Moreover, the negative ratio in the experiment on OVCAR3 cells (OVCAR3-SPC25, 50 cells) was found to be 1; in the experiment with OVCAR3 cells (OVCAR3-SPC25, 100 cells), 1; in the experiment on OVCAR3 cells (OVCAR3-SPC25, 200 cells), 0.9167; in the experiment on OVCAR3 cells (OVCAR3-SPC25, 400 cells) it was 0.875; in the experiment with OVCAR3 cells (OVCAR3-SPC25, 800 cells) it was 0.8333; in the experiment on OVCAR3 cells (OVCAR3-Vector, 50 cells), 1. Also, the negative ratio with OVCAR3 cells (OVCAR3-Vector, 100 cells) is reported as 1; with OVCAR3 cells (OVCAR3-Vector, 200 cells) it was 0.9583; with OVCAR3 cells (OVCAR3-Vector, 400 cells), 0.9167; in the experiment on OVCAR3 cells (OVCAR3-Vector, 800 cells), 0.8333; in the experiment with COV644 cells (COV644-SPC25, 50 cells), 1; with COV644 cells (COV644-SPC25, 100 cells) it was 1. Further, the negative ratio in the experiment on COV644 cells (COV644-Vector, 50 cells) is 1; in the experiment with COV644 cells (COV644-Vector, 100 cells) it was 1; in the experiment on COV644 cells (COV644-Vector, 200 cells), 1. Besides, the “number of negative wells” value in the experiment on OVCAR3 cells (OVCAR3-SPC25, 50 cells) is 24; with OVCAR3 cells (OVCAR3-SPC25, 100 cells), 24; in the experiment with OVCAR3 cells (OVCAR3-SPC25, 200 cells), 22; in the experiment on OVCAR3 cells (OVCAR3-SPC25, 400 cells), 21; with OVCAR3 cells (OVCAR3-SPC25, 800 cells) it was 20; with OVCAR3 cells (OVCAR3-Vector, 50 cells), 24. Also, the “number of negative wells” value with OVCAR3 cells (OVCAR3-Vector, 100 cells) amounted to 24; with OVCAR3 cells (OVCAR3-Vector, 200 cells), 23; with OVCAR3 cells (OVCAR3-Vector, 400 cells), 22; in the experiment on OVCAR3 cells (OVCAR3-Vector, 800 cells), 20; in the experiment with COV644 cells (COV644-SPC25, 50 cells), 24; with COV644 cells (COV644-SPC25, 100 cells), 24. Also, the “number of negative wells” value in the experiment with COV644 cells (COV644-SPC25, 200 cells) stood at 23; with COV644 cells (COV644-SPC25, 400 cells), 23; in the experiment with COV644 cells (COV644-SPC25, 800 cells) it was 21; in the experiment on COV644 cells (COV644-Vector, 50 cells), 24; with COV644 cells (COV644-Vector, 100 cells), 24; in the experiment with COV644 cells (COV644-Vector, 200 cells), 24. Besides, the “number of negative wells” value in the experiment with COV644 cells (COV644-Vector, 400 cells) amounted to 23; in the experiment with COV644 cells (COV644-Vector, 800 cells), 22. Besides, the “Log(negative ratio, 2)” value in the experiment on COV644 cells (COV644-SPC25, 50 cells) worked out at 0; with COV644 cells (COV644-SPC25, 100 cells), 0; in the experiment with COV644 cells (COV644-Vector, 50 cells), 0; with COV644 cells (COV644-Vector, 100 cells), 0; with COV644 cells (COV644-Vector, 200 cells), 0.

`NC(=O)c1cccc2cn(-c3ccc([C@@H]4CCCNC4)cc3)nc12` [niraparib]: in the experiment on patients with EOC, the “PFS or OS during chemotherapy” value is “marginal PFS or OS enhancements” and the “maintenance treatment benefit for patient survival” value is on record as “marked benefits”.

For “bevacizumab: biological agent combined with platinum-based regimens”, in the experiment on patients with EOC (added to platinum-based regimens, recurrent patients with EOC, compared with controls), the PFS prolongation is listed as 3–4 months.

Regarding `O=C(O)c1ccc2c(c1)nc(Nc1cccc(Cl)c1)c1ccncc12` [CX-4945], the “kinase activity of endogenous CKII” value at casein kinase II (CKII) is “completely inhibited”. Besides, the “SPC25-mediated promotion of MYH9 phosphorylation at Ser1943” value in experiment [1] was “persisted”.

For `O=C(c1cc(Cc2n[nH]c(=O)c3ccccc23)ccc1F)N1CCN(C(=O)C2CC2)CC1` [olaparib], in the experiment with patients with EOC, the “PFS or OS during chemotherapy” value is “marginal PFS or OS enhancements” and the “maintenance treatment benefit for patient survival” value is listed as “marked benefits”.

The record behind these values is publication PMC11653702, “Targeting the SPC25/RIOK1/MYH9 Axis to Overcome Tumor Stemness and Platinum Resistance in Epithelial Ovarian Cancer” (Advanced Science, 2024).
